Several values for one entry are separate records, joined by “and”; a condition that tells them apart may be missing. Equal values may be shown once. Toxic doses and inconclusive results are not listed. No stated cut-off is given here; in the data, active means T/C of 150% or more; inactive means T/C below 125%.
Tested on: L1210 leukemia ip in BDF1 mice, survival T/C
Test: NCI In Vivo Anticancer Drug Screen. Data for tumor model L1210 Leukemia (intraperitoneal) in B6D2F1 (BDF1) mice
Settings: endpoint: mean survival time, higher = longer survival
Method in brief: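 Transplanted-tumor mice were given test agent; controls received vehicle only. Survival readings from the two groups were divided (treated over control).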

[1] = dose: 50.0 mg/kg/injection, schedule: Q01DX009 (ip), vehicle: saline with Tween-80
[2] = dose: 100.0 mg/kg/injection, schedule: Q04DX003 (ip), vehicle: saline with Tween-80
[3] = dose: 100.0 mg/kg/injection, schedule: Q04DX003 (ip), vehicle: gum acacia
[4] = dose: 200.0 mg/kg/injection, schedule: Q04DX003 (ip), vehicle: gum acacia
[5] = dose: 100.0 mg/kg/injection, schedule: Q01DX009 (ip), vehicle: saline
[6] = dose: 100.0 mg/kg/injection, schedule: Q04DX003 (ip), vehicle: saline
[7] = dose: 200.0 mg/kg/injection, schedule: Q01DX009 (ip), vehicle: saline
[8] = dose: 200.0 mg/kg/injection, schedule: Q04DX003 (ip), vehicle: saline
[9] = dose: 25.0 mg/kg/injection, schedule: Q01DX001 (ip), vehicle: saline
[10] = dose: 50.0 mg/kg/injection, schedule: Q01DX001 (ip), vehicle: saline
[11] = dose: 100.0 mg/kg/injection, schedule: Q01DX001 (ip), vehicle: saline
[12] = dose: 200.0 mg/kg/injection, schedule: Q01DX001 (ip), vehicle: saline
[13] = dose: 200.0 mg/kg/injection, schedule: Q04DX003 (ip), vehicle: saline with Tween-80
[14] = dose: 400.0 mg/kg/injection, schedule: Q04DX003 (ip), vehicle: saline with Tween-80
[15] = dose: 100.0 mg/kg/injection, schedule: Q01DX009 (ip), vehicle: saline with Tween-80
[16] = dose: 200.0 mg/kg/injection, schedule: Q01DX009 (ip), vehicle: saline with Tween-80
[17] = dose: 400.0 mg/kg/injection, schedule: Q01DX009 (ip), vehicle: saline with Tween-80
[18] = dose: 400.0 mg/kg/injection, schedule: Q01DX001 (ip), vehicle: saline

Measured: T/C

CS(=O)(=O)c1ccc(Sc2ccc(S(C)(=O)=O)cc2)cc1
inactive: dose: 12.5 mg/kg/injection, schedule: Q01DX009 (ip), vehicle: saline with Tween-80 105 % of control | dose: 25.0 mg/kg/injection, schedule: Q01DX009 (ip), vehicle: saline with Tween-80 96 % of control | dose: 25.0 mg/kg/injection, schedule: Q04DX003 (ip), vehicle: saline with Tween-80 98 % of control | [1] 92 % of control | dose: 50.0 mg/kg/injection, schedule: Q04DX003 (ip), vehicle: saline with Tween-80 94 % of control | [2] 93 % of control

COc1cccc(C2NC(=O)N3C(c4cccc(OC)c4)NC(=O)N23)c1 (centres undefined)
inactive: dose: 100.0 mg/kg/injection, schedule: Q01DX009 (ip), vehicle: gum acacia 98 % of control | [3] 97 % of control | dose: 200.0 mg/kg/injection, schedule: Q01DX009 (ip), vehicle: gum acacia 91 % of control | [4] 95 % of control | dose: 400.0 mg/kg/injection, schedule: Q01DX009 (ip), vehicle: gum acacia 91 % of control

C[N+](C)(C)CCCC[N+](C)(C)C
inactive: dose: 50.0 mg/kg/injection, schedule: Q01DX009 (ip), vehicle: saline 110 % of control | [5] 100 % of control and 106 % of control | [6] 102 % of control | [7] 98 % of control and 111 % of control | [8] 100 % of control

O=C(COc1cc(Cl)c(Cl)cc1Cl)Nc1cccc2c1C(=O)c1ccccc1C2=O
inactive: dose: 75.0 mg/kg/injection, schedule: Q04DX002 (ip), vehicle: Klucel (hydroxypropylcellulose) (HPC) 98 % of control | dose: 150.0 mg/kg/injection, schedule: Q04DX002 (ip), vehicle: Klucel (hydroxypropylcellulose) (HPC) 103 % of control | dose: 300.0 mg/kg/injection, schedule: Q04DX002 (ip), vehicle: Klucel (hydroxypropylcellulose) (HPC) 103 % of control

CCOC(=O)C(N)CCl (centres undefined)
inactive: dose: 6.25 mg/kg/injection, schedule: Q01DX001 (ip), vehicle: saline 100 % of control | dose: 12.5 mg/kg/injection, schedule: Q01DX001 (ip), vehicle: saline 101 % of control | [9] 101 % of control | [10] 99 % of control | [11] 97 % of control | [12] 95 % of control

Nc1ccc(OCc2ccc(C(=O)Nc3cccc(S(=O)(=O)F)c3)cc2)c(Cl)c1
inactive: dose: 100.0 mg/kg/injection, schedule: Q04DX003 (ip), vehicle: Klucel (hydroxypropylcellulose) (HPC) 100 % of control | dose: 200.0 mg/kg/injection, schedule: Q04DX003 (ip), vehicle: Klucel (hydroxypropylcellulose) (HPC) 108 % of control | dose: 400.0 mg/kg/injection, schedule: Q04DX003 (ip), vehicle: Klucel (hydroxypropylcellulose) (HPC) 96 % of control

O=C(Cc1ccccc1)NC1=C(Cl)C(=O)c2ccccc2C1=O
inactive: [2] 89 % of control | [13] 101 % of control | [14] 88 % of control

C[CH2][Sn]([CH2]C)([CH2]C)[O]C(=O)CO
inactive: dose: 3.12 mg/kg/injection, schedule: Q04DX002 (ip), vehicle: saline 93 % of control | dose: 6.25 mg/kg/injection, schedule: Q04DX002 (ip), vehicle: saline 117 % of control | dose: 12.5 mg/kg/injection, schedule: Q04DX002 (ip), vehicle: saline 104 % of control

O/N=C(/CN1CCCCC1)c1ccccc1
inactive: [2] 95 % of control | [13] 98 % of control | [14] 104 % of control

CCOC(=O)CCN(C(=S)Nc1ccccc1)C1CCCCC1
inactive: dose: 100.0 mg/kg/injection, schedule: Q01DX Z (ip), vehicle: methylcellulose (MC) 94 % of control | dose: 200.0 mg/kg/injection, schedule: Q01DX Z (ip), vehicle: methylcellulose (MC) 92 % of control

CC(C)C1CCC(C)(Cl)C2CCC(C)(Cl)CC12 (centres undefined)
inactive: [5] 96 % of control | [7] 91 % of control | dose: 400.0 mg/kg/injection, schedule: Q01DX009 (ip), vehicle: saline 89 % of control

O=C(Nc1ccccc1-c1ccc([N+](=O)[O-])cc1)c1ccc(Cl)c(Cl)c1
inactive: dose: 100.0 mg/kg/injection, schedule: Q04DX003 (ip), vehicle: water 93 % of control | dose: 200.0 mg/kg/injection, schedule: Q04DX003 (ip), vehicle: water 93 % of control | dose: 400.0 mg/kg/injection, schedule: Q04DX003 (ip), vehicle: water 93 % of control

CC12CC3CC(C)(C1)CC(SCCCCCN=C(N)CSSCC(N)=NCCCCCSC14CC5CC(C)(CC(C)(C5)C1)C4)(C3)C2
inactive: dose: 10.0 mg/kg/injection, schedule: Q04DX002 (ip), vehicle: Klucel (hydroxypropylcellulose) (HPC) 110 % of control | dose: 20.0 mg/kg/injection, schedule: Q04DX002 (ip), vehicle: Klucel (hydroxypropylcellulose) (HPC) 102 % of control | dose: 40.0 mg/kg/injection, schedule: Q04DX002 (ip), vehicle: Klucel (hydroxypropylcellulose) (HPC) 87 % of control

O=C(C1C2C=CC(CC2)C1C(=O)N1CCOCC1)N1CCOCC1 (centres undefined)
inactive: [6] 100 % of control | [8] 96 % of control | dose: 400.0 mg/kg/injection, schedule: Q04DX003 (ip), vehicle: saline 96 % of control

CCCNC(=O)Nc1ccc(C)c(Cl)c1
inactive: [15] 100 % of control | [2] 108 % of control | [16] 96 % of control | [13] 101 % of control | [17] 100 % of control | [14] 95 % of control

CC(C)CCC(=O)CCC1CCCCC1
inactive: [11] 92 % of control | [12] 92 % of control | [18] 94 % of control

NC(=Nc1ccccc1)c1ccc(Cl)cc1
inactive: dose: 25.0 mg/kg/injection, schedule: Q04DX002 (ip), vehicle: Klucel (hydroxypropylcellulose) (HPC) 93 % of control | dose: 50.0 mg/kg/injection, schedule: Q04DX002 (ip), vehicle: Klucel (hydroxypropylcellulose) (HPC) 97 % of control | dose: 100.0 mg/kg/injection, schedule: Q04DX002 (ip), vehicle: Klucel (hydroxypropylcellulose) (HPC) 101 % of control and 115 % of control

COc1ccc(/C=C/C(=O)c2ccc(OCc3ccccc3)c(OC)c2)cc1OC
inactive: [1] 105 % of control | [15] 104 % of control | [16] 98 % of control | [17] 90 % of control | dose: 500.0 mg/kg/injection, schedule: Q01DX009 (ip), vehicle: saline with Tween-80 102 % of control

CCC1C(=O)OCc2c1ccn(C)c2=O (centres undefined)
inactive: [9] 114 % of control | dose: 25.0 mg/kg/injection, schedule: Q04DX003 (ip), vehicle: saline 95 % of control | [10] 104 % of control | dose: 50.0 mg/kg/injection, schedule: Q04DX003 (ip), vehicle: saline 95 % of control | [11] 103 % of control | [6] 101 % of control | [12] 106 % of control | [8] 101 % of control

Cc1ccc(C2(C)CC/C(=N\NC(=O)c3ccccc3)c3cc(C)c(C)cc32)cc1C (centres undefined)
inactive: [11] 97 % of control | [12] 98 % of control | [18] 104 % of control

CCNC(C)(C)C(SSS)c1ccco1 (centres undefined)
inactive: dose: 12.5 mg/kg/injection, schedule: Q01DX009 (ip), vehicle: gum acacia 90 % of control | dose: 25.0 mg/kg/injection, schedule: Q01DX009 (ip), vehicle: gum acacia 88 % of control | dose: 50.0 mg/kg/injection, schedule: Q01DX009 (ip), vehicle: gum acacia 90 % of control | [3] 95 % of control | [4] 95 % of control | dose: 400.0 mg/kg/injection, schedule: Q04DX003 (ip), vehicle: gum acacia 107 % of control

CCNC(C)(C)C(SS(=O)(=O)O)c1ccc(Cl)s1 (centres undefined)
inactive: [15] 96 % of control | [2] 102 % of control | [16] 90 % of control | [13] 96 % of control | [14] 92 % of control

COc1ccc(Cl)cc1NC(=O)Oc1ccc(SC)c(C)c1
inactive: dose: 100.0 mg/kg/injection, schedule: Q01DX001 (ip), vehicle: saline with Tween-80 95 % of control | [15] 95 % of control | dose: 100.0 mg/kg/injection, schedule: Q04DX002 (ip), vehicle: saline with Tween-80 97 % of control and 98 % of control | dose: 200.0 mg/kg/injection, schedule: Q01DX001 (ip), vehicle: saline with Tween-80 91 % of control | [16] 98 % of control | dose: 200.0 mg/kg/injection, schedule: Q04DX002 (ip), vehicle: saline with Tween-80 98 % of control and 89 % of control | dose: 400.0 mg/kg/injection, schedule: Q01DX001 (ip), vehicle: saline with Tween-80 91 % of control | [17] 90 % of control | dose: 400.0 mg/kg/injection, schedule: Q04DX002 (ip), vehicle: saline with Tween-80 92 % of control and 98 % of control

— PubChem BioAssay AID248 (DTP/NCI, 2004)
